Legend:
[1] = MRI relaxivity of Mn-PDA contrast agents with BAPTA, with and without calcium, in buffer; type: physicochemical; conditions: 1.1 equivalents BAPTA, equimolar Ca^2+
Protocol: To examine the potential of Mn-PDA contrast agents to function as building blocks for the sensor design of FIG. 1A, MRI measurements were performed to assess the potential of BAPTA to interact with three paramagnetic chelates (FIG. 1A, inset). Addition of 1.1 equivalents of BAPTA to two of the Mn-PDA complexes, MnL1 and MnL3, produced significant effects on the T1-weighted MRI contrast induced by these compounds in buffer. These BAPTA-dependent contrast changes were reversed by addition of equimolar Ca^2+ (FIG. 1B). This was consistent with Mn-PDA moieties competing with Ca^2+ for binding to BAPTA molecules. The changes were quantified in terms of T1 relaxivity (r1) values, which were defined as the slope of the T1 relaxation rate (1/T1=R1) vs. concentration of each paramagnetic complex.
Most MRI data were acquired on a 7 T Bruker Biospec0 system using a T1-weighted 2D gradient echo sequence (echo time, TE=5 ms, repetition time, TR=100 ms; flip angle, FA=65 degrees (°)). Longitudinal relaxivity (r1) measurements were acquired using a 2D spin echo sequence (TE=11 ms, TR=125, 200, 400, 800, 1500, 3000, and 5000 ms), with in-plane resolution of 200×200 microns squared ((μm)^2) and 2 mm slice thickness. […] Stimulus-dependent R1 changes in cells were calculated as ΔR1/R1=[R1(incubated cells)−R1(naive cells)]/R1(naive cells). […]

[2] = Optical spectra / mass spectrometry of Mn-PDA complexes incubated with BAPTA over time; type: physicochemical; conditions: mixture with BAPTA, 0 h vs 24 h; confirmed by mass spectrometry
Description: In contrast, the MnL1 mixture with BAPTA developed a strong peak for uncomplexed L1 (m/z=347.37), indicating dissociation of the MnL1 complex.

## O=C1c2ccccc2[O][Mn-]23[O]c4ccccc4C(=O)[N]2c2ccccc2[N]13 [MnL1]
[1]
  Calcium-dependent changes in r1 in the presence of BAPTA: 105%
[2]
  spectroscopic behavior in the presence of BAPTA over time (stability): sharp changes indicative of degradation

— patent publication US10933146B2, “Cell-permeable imaging sensors and uses thereof” (Massachusetts Institute of Technology, priority 2017, dated 2021)
